Laboratory results taken from ChEMBL document CHEMBL1201862, “PubChem BioAssay data set” (2004).
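Test compounds were applied to cells in 96-well plates for 48 hours at 5 doses. GI50: concentration for 50% inhibition of growth.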 The source made the active and inactive calls. Cut-off read from the data, not from the text of the source: active = GI50 up to about 1.1 µM and inactive = higher.

Tests used:
Assay in all cases: DTP human tumour cell line panel, 48 h
HL-60 = test system: HL-60
MDA-MB-435 = test system: MDA-MB-435
CAKI-1 = test system: CAKI-1
HCT-15 = test system: HCT-15
OVCAR-8 = test system: OVCAR-8
SNB-75 = test system: SNB-75
HCC 2998 = test system: HCC 2998
NCI-H522 = test system: NCI-H522
SK-MEL-28 = test system: SK-MEL-28
UACC-62 = test system: UACC-62
786-0 = test system: 786-0
KM12 = test system: KM12
OVCAR-5 = test system: OVCAR-5
SN12C = test system: SN12C
SK-OV-3 = test system: SK-OV-3
MDA-N = test system: MDA-N
M14 = test system: M14
NCI-H460 = test system: NCI-H460
HCT-116 = test system: HCT-116
UACC-257 = test system: UACC-257

| SMILES | GI50 (HL-60) | GI50 (MDA-MB-435) | GI50 (CAKI-1) | GI50 (HCT-15) [µM] | GI50 (OVCAR-8) | GI50 (SNB-75) | GI50 (HCC 2998) | GI50 (NCI-H522) | GI50 (SK-MEL-28) | GI50 (UACC-62) | GI50 (786-0) | GI50 (KM12) | GI50 (OVCAR-5) | GI50 (SN12C) | GI50 (SK-OV-3) | GI50 (MDA-N) | GI50 (M14) | GI50 (NCI-H460) | GI50 (HCT-116) | GI50 (UACC-257) |
| --- | --- | --- | --- | --- | --- | --- | --- | --- | --- | --- | --- | --- | --- | --- | --- | --- | --- | --- | --- | --- |
| COc1cc2c(cc1OCCCCCCCCCCN1C(=O)c3cccc4cccc(c34)C1=O)N=C[C@@H]1CCCN1C2=O | 4.27 µM (inactive) | 4.25 µM (inactive) | 4.43 µM (inactive) | 4.8 | 4.95 µM (inactive) | 4.58 µM (inactive) | 11.1 µM (inactive) | 6.67 µM (inactive) | 12.3 µM (inactive) | 12.2 µM (inactive) | 9.06 µM (inactive) | 16.1 µM (inactive) | 25.8 µM (inactive) | 4.42 µM (inactive) | 6.68 µM (inactive) | 7.55 µM (inactive) | 13.7 µM (inactive) | 19.9 µM (inactive) | 5.52 µM (inactive) | 16.1 µM (inactive) |
| CSc1c(C#N)c(S)n(-c2ccc(Cl)cc2)c(=O)c1C#N | 52.5 µM (inactive) | > 100 µM (inactive) | > 100 µM (inactive) | 74.1 | 74.1 µM (inactive) | > 100 µM (inactive) | > 100 µM (inactive) | 50.9 µM (inactive) | > 100 µM (inactive) | 51.2 µM (inactive) | > 100 µM (inactive) | 40.2 µM (inactive) | > 100 µM (inactive) | > 100 µM (inactive) | > 100 µM (inactive) | > 100 µM (inactive) | > 100 µM (inactive) | > 100 µM (inactive) | 45.4 µM (inactive) | > 100 µM (inactive) |
| COc1ccc(-c2nc(N3CCCC3)no2)cc1 | 1.5 µM (inactive) | > 100 µM (inactive) | 51.6 µM (inactive) | 58.9 | 34.5 µM (inactive) | 34.1 µM (inactive) | 73.5 µM (inactive) | 39.1 µM (inactive) | > 100 µM (inactive) | 31 µM (inactive) | 36.3 µM (inactive) | 88.5 µM (inactive) | > 86.7 µM (inactive) | 74 µM (inactive) | 58.9 µM (inactive) | 67 µM (inactive) | 81.3 µM (inactive) | 33 µM (inactive) | > 91.8 µM (inactive) | > 100 µM (inactive) |
| CC(NC1=CC(=O)c2ncccc2C1=O)C(O)c1ccccc1 (stereo not given) | 3.44 µM (inactive) | 1.59 µM (inactive) | 6.78 µM (inactive) | 3.91 | 4.37 µM (inactive) | 2.36 µM (inactive) | 10.2 µM (inactive) | 7.66 µM (inactive) | 3.32 µM (inactive) | 2.02 µM (inactive) | 8.69 µM (inactive) | 7.67 µM (inactive) | 15.5 µM (inactive) | 5.18 µM (inactive) | 16.1 µM (inactive) | 1.58 µM (inactive) | 2.57 µM (inactive) | 1.28 µM (inactive) | 3.6 µM (inactive) | 1.91 µM (inactive) |
| COc1nc(N)c(/N=C/C(OC(C)=O)C(OC(C)=O)C(COC(C)=O)OC(C)=O)c(=O)n1C (stereo not given) | > 100 µM (inactive) | > 100 µM (inactive) | > 100 µM (inactive) | > 100 | > 100 µM (inactive) | > 100 µM (inactive) | > 100 µM (inactive) | > 100 µM (inactive) | > 100 µM (inactive) | > 100 µM (inactive) | > 100 µM (inactive) | > 100 µM (inactive) | > 100 µM (inactive) | > 100 µM (inactive) | > 100 µM (inactive) | > 100 µM (inactive) | > 100 µM (inactive) | > 100 µM (inactive) | > 100 µM (inactive) | > 100 µM (inactive) |
| N=C(N)N/N=C/c1cnn(C(=N)N)c1 | > 100 µM (inactive) | > 100 µM (inactive) | > 100 µM (inactive) | > 100 | > 100 µM (inactive) | 95.3 µM (inactive) | > 100 µM (inactive) | > 100 µM (inactive) | > 100 µM (inactive) | > 100 µM (inactive) | > 100 µM (inactive) | 64.1 µM (inactive) | > 100 µM (inactive) | 63.7 µM (inactive) | > 100 µM (inactive) | > 100 µM (inactive) | > 100 µM (inactive) | > 100 µM (inactive) | > 100 µM (inactive) | 57.4 µM (inactive) |
| CCNCC(=O)Nc1ccc2c(c1)C(=O)c1ccc(NC(=O)CNCC)cc1C2=O | 3.01 µM (inactive) | 2.27 µM (inactive) | 8.77 µM (inactive) | 1.93 | 2.18 µM (inactive) | 1.41 µM (inactive) | 1.7 µM (inactive) | 1.87 µM (inactive) | 5.61 µM (inactive) | 3.75 µM (inactive) | 2.14 µM (inactive) | 11.7 µM (inactive) | 3.01 µM (inactive) | 1.87 µM (inactive) | 2.76 µM (inactive) | 4.59 µM (inactive) | 3.5 µM (inactive) | 1.49 µM (inactive) | 1.44 µM (inactive) | 5.98 µM (inactive) |
| Cc1ccc2c(c1)C(C1Cc3c(C)cccc3C1=O)OC2=O (stereo not given) | > 100 µM (inactive) | > 100 µM (inactive) | > 100 µM (inactive) | 89.7 | > 100 µM (inactive) | 87.7 µM (inactive) | > 100 µM (inactive) | > 100 µM (inactive) | > 100 µM (inactive) | > 100 µM (inactive) | > 100 µM (inactive) | > 100 µM (inactive) | > 100 µM (inactive) | > 100 µM (inactive) | > 100 µM (inactive) | > 100 µM (inactive) | > 100 µM (inactive) | > 100 µM (inactive) | > 100 µM (inactive) | > 100 µM (inactive) |
| Cc1cn(C2CC(N=[N+]=[N-])C(CO)O2)c(=O)n(CCCCO)c1=O (stereo not given) | > 100 µM (inactive) | > 100 µM (inactive) | > 100 µM (inactive) | > 100 | > 100 µM (inactive) | 88.3 µM (inactive) | > 100 µM (inactive) | > 100 µM (inactive) | > 100 µM (inactive) | > 100 µM (inactive) | > 100 µM (inactive) | > 100 µM (inactive) | > 100 µM (inactive) | > 100 µM (inactive) | > 100 µM (inactive) | > 100 µM (inactive) | > 100 µM (inactive) | > 100 µM (inactive) | > 100 µM (inactive) | > 100 µM (inactive) |
| COC12C=CC(C=C1C#N)CC2.COC12C=CC(CC1)CC2=O (stereo not given) | > 100 µM (inactive) | > 100 µM (inactive) | > 100 µM (inactive) | > 100 | > 100 µM (inactive) | 67.8 µM (inactive) | > 100 µM (inactive) | > 100 µM (inactive) | > 100 µM (inactive) | > 100 µM (inactive) | > 100 µM (inactive) | > 100 µM (inactive) | > 100 µM (inactive) | > 100 µM (inactive) | > 100 µM (inactive) | > 100 µM (inactive) | > 100 µM (inactive) | > 100 µM (inactive) | > 100 µM (inactive) | > 100 µM (inactive) |
